Legend:
Test in all cases: Tyrosine kinase activity inhibition rate in cell membrane fraction (Poly-Glu4-Tyr substrate)
Format in all cases: biochemical
Settings in all cases: 25 μM kinase inhibitor, 25 μM ATP
[1] = system: tyrosine kinase in cell membrane fraction of HS578T
Method: (§1) Breast cancer cell lines shown in Table 3 were cultured in a 150 mm dish so as to be about 80% confluent, the cells were recovered using PBS and a scraper, and a cell pellet was obtained by centrifugal operation (900×g, for 5 minutes, at 4° C.). The pellet was frozen with liquid nitrogen and stored at −80° C. until preparation of the measurement sample.
(§2) 500 μl of NP40 (−) solubilized buffer (20 mM HEPES (pH 7.4)), (w/v) % glycerol, 0.2% protease inhibitor cocktail (#P8340: Sigma-Aldrich (product composition: 104 mM AEBSF, 80 μM aprotinin, 4 mM bestatin, 1.4 mM E-64, 2 mM leupeptin, 1.5 mM Pepstatin A), 50 mM NaF and 200 μM Na3VO4) was added to the cell pellet, followed by stirring for 2 seconds three times using a vortex mixer. After being allowed to stand for 10 minutes, the soluble fraction was removed by centrifugal operation (at 20000×g, for 30 minutes, at 4° C.). The obtained pellet was resuspended in 500 μl of NP40 (−) solubilized buffer, the soluble fraction was again removed by centrifugal operation (at 20000×g, for 20 minutes, at 4° C.), and the pellet was washed. The pellet was resuspended by adding 500 μl of NP40 (+) solubilized buffer (a buffer prepared by adding NP-40 to the NP40 (−) solubilized buffer at a final concentration of 1%) to the pellet, pipetting fifty times, and vortexing for 2 seconds three times. After being allowed to stand for 10 minutes, a cell membrane fraction containing a membrane protein was obtained by centrifugal operation (at 20000×g, for 40 minutes, at 4° C.). The protein concentration of the fraction was measured by DC protein assay (#500-0116 JA: Bio-Rad) and the fraction was used as a sample for kinase activity measurement. The sample was frozen with liquid nitrogen and stored at −80° C. until used for the following kinase activity measurement.
(§3) NeutrAvidin Coated Plates (HBC) (96 white plate; #15509: Pierce) were washed three times with 300 μl of TBS-T (20 mM Tris-HCl (pH 7.4)), 150 mM NaCl, 0.1% Tween), and then 100 μl of Poly-Glu4-Tyr biotin conjugate (#12440: Upstate) which had been diluted to 1 μg/ml with TBS (20 mM Tris-HCl (pH 7.4), 150 mM NaCl) was added to the wells. After shaking at 37° C. and 400 rpm for 90 minutes, the wells were washed with 300 μl of TBS-T three times and a measuring plate was obtained.
(§4) The measurement sample was diluted with a kinase buffer (20 mM HEPES (pH 7.4), 25 mM MgCl2, 1.25 mM MnCl2, 250 μM Na3VO4, 12.5 (w/v) % glycerol) so as to adjust the protein concentration to 6.25 μg/ml. The diluted measurement sample was transferred to wells of a 96 well V bottom plate. A DMSO solution (inhibitor concentration: 5 mM) containing one type of tyrosine kinase inhibitors (Inhibitors 1 to 10 shown in Table 6) was added to the wells at a ratio of 1:160 based on the diluted measurement sample solution, followed by mixing thereof. As the control, DMSO was added to the diluted measurement sample at the same ratio as the solution of the inhibitor. The used tyrosine kinase inhibitors are represented as Inhibitors 1 to 10 in Table 6.
(§5) After addition of the inhibitors, a mixed solution of the measurement sample and the inhibitor was allowed to stand at room temperature for 10 minutes. 40 μl of the mixed solution was transferred to wells of the measuring plate and 10 μl of an ATP solution (20 mM HEPES (pH 7.4), […]) as the phosphate group donor was added to the wells.
(§6) The composition of the solution in the wells is as follows: protein concentration: 5 μg/ml, 20 mM HEPES (pH 7.4), 20 mM MgCl2, 1 mM MnCl2, 200 μM Na3VO4, 10 (w/v) % glycerol, 25 μM ATP, 25 μM kinase inhibitor.
(§7) After shaking the measuring plate at 37° C. and 400 rpm for 60 minutes, the solution was removed from the measuring plate, and the wells were washed with 300 μl of TBS-T three times. 100 μl of Starting Block T20 (TBS) (#37543: Pierce) as a blocking solution was added to the wells, followed by blocking at 37° C. and 400 rpm for 10 minutes. The blocking solution was removed from the measuring plate. […]

[2] = system: tyrosine kinase in cell membrane fraction of BT-474
Method: as §1, §2, §3, §4, §5, §6, §7

[3] = system: tyrosine kinase in cell membrane fraction of HCC1806
Method: as §1, §2, §3, §4, §5, §6, §7

[4] = system: tyrosine kinase in cell membrane fraction of ZR-75-30
Method: as §1, §2, §3, §4, §5, §6, §7

[5] = system: tyrosine kinase in cell membrane fraction of HCC1954
Method: as §1, §2, §3, §4, §5, §6, §7

[6] = system: tyrosine kinase in cell membrane fraction of MDA-MB-468
Method: as §1, §2, §3, §4, §5, §6, §7

[7] = system: tyrosine kinase in cell membrane fraction of ZR-75-1
Method: as §1, §2, §3, §4, §5, §6, §7

[8] = system: tyrosine kinase in cell membrane fraction of BT-549
Method: as §1, §2, §3, §4, §5, §6, §7

[9] = system: tyrosine kinase in cell membrane fraction of MDA-MB-435S
Method: as §1, §2, §3, §4, §5, §6, §7

[10] = system: tyrosine kinase in cell membrane fraction of HCC1937
Method: as §1, §2, §3, §4, §5, §6, §7

[11] = system: tyrosine kinase in cell membrane fraction of SK-BR-3
Method: as §1, §2, §3, §4, §5, §6, §7

[12] = system: tyrosine kinase in cell membrane fraction of AU565
Method: as §1, §2, §3, §4, §5, §6, §7

[13] = system: tyrosine kinase in cell membrane fraction of HCC1428
Method: as §1, §2, §3, §4, §5, §6, §7

[14] = system: tyrosine kinase in cell membrane fraction of BT-20
Method: as §1, §2, §3, §4, §5, §6, §7

[15] = system: tyrosine kinase in cell membrane fraction of MDA-MB-453
Method: as §1, §2, §3, §4, §5, §6, §7

[16] = system: tyrosine kinase in cell membrane fraction of CAMA-1
Method: as §1, §2, §3, §4, §5, §6, §7

[17] = system: tyrosine kinase in cell membrane fraction of MDA-MB-415
Method: as §1, §2, §3, §4, §5, §6, §7

Compound | Inhibition rate [1] [%] | Inhibition rate [2] [%] | Inhibition rate [3] [%] | Inhibition rate [4] [%] | Inhibition rate [5] [%] | Inhibition rate [6] [%] | Inhibition rate [7] [%] | Inhibition rate [8] [%] | Inhibition rate [9] [%] | Inhibition rate [10] [%] | Inhibition rate [11] [%] | Inhibition rate [12] [%] | Inhibition rate [13] [%] | Inhibition rate [14] [%] | Inhibition rate [15] [%] | Inhibition rate [16] [%] | Inhibition rate [17] [%]
CN(C)c1cc2c(Nc3ccc4c(cnn4Cc4ccccc4)c3)ncnc2cn1 [Inhibitor 4, N4-(1-benzyl-1H-indazol-5-yl)-N6,N6-dimethyl-pyrido-[3,4-d]-pyrimidine-4,6-diamine] | 32.1 | 24.6 | 33.7 | 20.9 | 23.2 | 71.6 | 7.0 | 48.8 | 22.6 | 17.9 | 31.4 | −3.8 | 7.9 | 32.4 | 27.9 | 7.3 | 19.6
COc1cc2ncnc(Nc3cccc(Cl)c3)c2cc1OC [Inhibitor 1] | 53.8 | 26.0 | 57.9 | 20.1 | 39.4 | 77.4 | 20.8 | 52.9 | 33.4 | 46.0 | 46.8 | 29.3 | 19.3 | 47.2 | 39.8 | 14.3 | 41.3
CS(=O)(=O)CCNCc1nc(-c2ccc3ncnc(Nc4ccc(OCc5cccc(F)c5)c(Cl)c4)c3c2)cs1.Cl.Cl [Inhibitor 5, N-[3-chloro-4-[(3-fluorophenyl)methoxy]phenyl]-6-[2-[[[2-(methylsulfonyl)ethyl]amino]methyl]-4-thiazolyl]-4-quinazolineamine dihydrochloride] | 64.2 | 42.7 | 68.4 | 64.4 | 59.5 | 75.4 | 44.8 | 68.8 | 57.8 | 42.3 | 75.7 | 40.9 | 56.1 | 56.3 | 70.4 | 48.6 | 48.1
CN1CCC(Nc2ncc3ncnc(Nc4ccc(F)c(Cl)c4)c3n2)CC1 [Inhibitor 2] | 20.8 | 10.5 | 29.6 | 4.4 | 19.7 | 52.1 | 9.0 | 21.7 | 3.8 | 28.1 | 18.8 | 7.7 | 6.8 | 18.9 | 19.9 | −3.4 | 25.0
CCCNC(=O)Nc1ccc(Oc2ncnc3cc(OC)c(OC)cc23)cc1Cl [Inhibitor 7] | 19.4 | 30.3 | 27.7 | 18.5 | 17.6 | 18.5 | 18.3 | 24.0 | 10.5 | 17.3 | 45.0 | 7.1 | 12.9 | 2.3 | 29.4 | 3.4 | 25.1
COc1cc2ncnc(Nc3ccc(OCc4ccccc4)cc3)c2cc1OC [Inhibitor 3, 4-(4-benzyloxyanilino)-6,7-dimethoxyquinazoline] | 40.0 | 15.1 | 56.4 | 37.2 | 31.8 | 76.9 | 38.5 | 59.8 | 37.2 | 24.1 | 44.1 | 25.7 | 29.8 | 42.2 | 36.9 | 16.7 | 50.5
